Measurements published in patent publication US20250235457A1, “METHODS AND COMPOSITIONS FOR TREATING CDKL5 DISORDER USING ALLOPURINOL” (priority 2024, published 2025).

Assays:
[1] = tested on: CDKL5-deficient mice; experiment: Hind limb clasping test; assay type: in vivo; settings: Het CDKL5-deficient mice before vs after treatment, 5 and 10 days oral (FIG. 9)
Description: The hind limb clasping test was performed to assess motor function and neurological impairments in CDKL5-deficient mouse models before and after treatment with allopurinol. […] Mice were suspended by their tails for a duration of 2 minutes, and hind limb retraction behavior (referred to as clasping) was recorded. Video recordings were analyzed to determine total clasping time during the test. Each mouse was evaluated using a standardized scoring system based on the severity of hind limb clasping behavior: • 0. No limb clasping observed. • 1.
Testing was conducted at baseline (pre-treatment) and at 5 and 10 days following oral administration of allopurinol. The hind limb clasping scores were averaged for each group, and the results were analyzed to assess changes in motor impairments following treatment.

[2] = tested on: patient with CDKL5 deficiency disorder (CDD); experiment: Off-label allopurinol treatment of a pediatric patient with CDD (case); assay type: in vivo, human
Text: CDD is a severe neurodevelopmental disorder characterized by treatment-resistant epilepsy, profound developmental delays, and significant motor impairments.
The patient presented with severe developmental delays since birth and had never met motor or speech milestones. […] The patient also experienced frequent, uncontrolled seizures despite being on a ketogenic diet and receiving physical, occupational, speech, and vision therapies. Their seizures were refractory to multiple anti-epileptic drugs (AEDs), including Keppra, Epidiolex, Soticlestat, Clonazepam, Sabril, Phenobarbital, and Oxcarbazepine.
Baseline assessments conducted prior to treatment initiation included a review of medical history, physical examination, laboratory tests, and functional evaluations.
Allopurinol was prescribed as an adjunct therapy to the patient's existing seizure management regimen without modifications to their ongoing AED treatments or dietary plan. The treatment protocol involved administering allopurinol at a dose of 100 mg per day, divided into two doses of 50 mg with lunch and 50 mg with dinner. The patient's progress was monitored over a 24-week period, unless adverse events necessitated an adjustment or discontinuation of the treatment. Caregivers maintained a daily diary to document seizure frequency, duration, and type, as well as changes in behavior, communication attempts, motor abilities, urine output, and general health.
Clinical assessments were conducted every four weeks, either virtually or in-person, to monitor safety and efficacy. Laboratory tests were performed every six weeks to evaluate uric acid levels, urinalysis, complete blood count (“CBC”), blood sugar levels, and other relevant indicators. EEG assessments were conducted at baseline, at eight-week intervals, and at the end of the study to evaluate changes in seizure activity and brain function. Regular evaluations by a pediatric neuro-ophthalmologist were included to assess visual and neurological health.
During the study, therapeutic interventions such as speech therapy, physical therapy, and the use of augmentative and alternative communication (AAC) devices were continued. Specific goals included improving functional communication through AAC, enhancing motor control, and increasing engagement with therapy activities. Progress in these areas was tracked alongside clinical outcomes to assess the comprehensive impact of allopurinol on the patient's quality of life.
At the time of treatment initiation, the patient weighed 18 kg. […] The end-of-study assessment included a final medical evaluation, EEG, laboratory tests, and a review of therapy outcomes to measure the safety and efficacy of allopurinol as a treatment for CDD.

[3] = tested on: CDKL2; experiment: qPCR of CDKL2 expression in the treated patient; assay type: in vivo, human
[4] = tested on: pediatric patients diagnosed with CDKL5 disorder; experiment: Prospective open-label clinical trial in pediatric patients with CDKL5 disorder; assay type: in vivo, human
Description: For the clinical trial, a prospective, open-label study was conducted between Aug. 1, 2023, and May 1, 2024, to evaluate the efficacy of allopurinol in pediatric patients diagnosed with CDKL5 disorder. The trial enrolled eight patients, aged 2 to 10 years, with a confirmed diagnosis of CDKL5 disorder and ongoing epilepsy that was resistant to conventional anti-epileptic drugs. Patients were required to have a stable seizure regimen for at least four weeks prior to participation. Those with a history of severe allergic reactions to allopurinol or other contraindicating medical conditions were excluded from the study. All patients were treated with allopurinol as an adjunct therapy to their existing anti-epileptic drug regimen, with the starting dose set at 10 mg/kg/day, administered orally in divided doses (twice daily, BID). The dosage was adjusted based on individual tolerability, and all treatment was closely supervised by a pediatric neurologist specializing in seizure disorders. Seizure frequency and severity were assessed at baseline and then at 4-week intervals throughout the 9-month study period. The primary endpoint of the study was the reduction in the frequency of major motor seizures, which was assessed using patient diaries and caregiver reports. Secondary endpoints included the severity of seizures (measured by the Modified Rankin Scale), overall neurological improvement, and quality of life, evaluated using the CDKL5 Disorder Disease-Specific Quality of Life (CDKL5-QoL) questionnaire. Statistical analysis was performed using paired t-tests to compare seizure frequency data between baseline and post-treatment periods, with a significance level set at p<0.05.

[5] = tested on: CDKL5 Het female mice; experiment: Seizure monitoring (video and EEG) in CDKL5 Het female mice; assay type: in vivo; settings: 30 mg/kg/day in drinking water, treated vs untreated controls
Text: A p-value of <0.05 was considered statistically significant.

[6] = tested on: CDKL2 and GluN2B subunits in the hippocampal and cortical regions; experiment: Histological / immunohistochemical analysis of brain tissue of CDKL5 Het mice; assay type: in vivo; settings: treated animals, 30 mg/kg/day
Description: In addition to the clinical trial, a preclinical animal study was conducted using a mouse model of CDKL5 disorder (CDKL5 Het female mice). A total of eight mice were included in the study, with four receiving treatment and four serving as untreated controls. All mice were housed under standard laboratory conditions with a 12-hour light/dark cycle and ad libitum access to food and water. The treatment protocol involved the oral administration of allopurinol dissolved in drinking water at a target dose of 30 mg/kg/day. The solution was prepared in phosphate-buffered saline (PBS) with a concentration of 0.1 mg/mL allopurinol in a 1:10 solution of dimethyl sulfoxide (DMSO):PBS (pH 7.2). Control animals received an identical solution without allopurinol. Seizure activity was monitored daily throughout the study, with seizure severity and duration recorded using both video and electroencephalogram assessments. At the end of the study, brain tissue from both treated and untreated animals was collected for histological analysis, specifically to assess the expression of CDKL2 and GluN2B subunits in the hippocampal and cortical regions. Immunohistochemical staining was used to visualize the localization and abundance of these proteins. Data from the seizure monitoring were analyzed using an unpaired t-test, and histological data were quantified using image analysis software. […]

[7] = tested on: phosphorylation of key synaptic proteins, including EB2 (MAPRE2); experiment: Neuronal cultures derived from CDKL5-deficient models; assay type: cell-based
[8] = 1:10 solution of DMSO:PBS (pH 7.2); 'believed to be approximately'; cited from earlier work
[9] = tested on: CDKL5-deficient mice; experiment: Marble burying test
[10] = tested on: EB2 (MAPRE2) phosphorylation at phospho-Serine 222; experiment: Western blot of EB2 phosphorylation in brain tissue of CDKL5-deficient mice; settings: 10 days
[11] = 100 mg per day, 24-week study period

## Oc1ncnc2[nH]ncc12 [allopurinol]
[1]
  hind limb clasping behavior: significant reduction in hind limb clasping behavior
[2]; 100 mg per day adjunct, with a reduction in epileptic discharges
  EEG background activity: marked improvement
[2]; [11]
  adverse effects: No adverse effects were reported
  tolerability: well tolerated
[2]; 3 months after treatment, before treatment 1, lower desirable
  CDKL5 Severity Scale Part 3 (Caregiver Report): 0
[2]; 3 months after treatment, before treatment 2, higher desirable
  CDKL5 Severity Scale Part 6 (Motor Skills): 4
[2]; 3 months after treatment, before treatment 25, lower desirable
  CDKL5 Severity Scale Part 4 (Clinician Report): 25
[2]; 3 months after treatment, before treatment 29, lower desirable
  CDKL5 Severity Scale Part 2 (Seizure Activity): 29
[2]; 3 months after treatment, before treatment 32, lower desirable
  CDKL5 Severity Scale Part 1 (General Health): 21
[2]; 3 months after treatment, before treatment 104
  CDKL5 Severity Scale Total Score: 69
[2]; 3 months after treatment, before treatment −1, higher desirable
  CDKL5 Severity Scale Part 5 (Behavioral Skills): 8
[2]; person, 100 mg per day adjunct, after 3 months
  seizure status: completely seizure-free
[2]; qualitative observational data
  quality of life (observational): reduced sleep disturbances, improved saliva control, and decreased caregiver burden
[2]; therapist and caregiver observation
  cognitive and motor functions: notable gains in cognitive and motor functions
[3]; control group mean 5.44307×10^−6 (±2.26749×10^−6)
  patient's CDKL2 expression level: 1.7356×10^−5 (±1.302×10^−6)
[3]; treated patient compared to healthy donor controls
  increase in the expression of CDKL2 vs healthy donor controls: 3 fold
[4]; 10 mg/kg/day
  patients demonstrating a decrease in seizure severity by at least one grade (Modified Rankin Scale): 75 % of patients
  patients reporting improvements in sleep patterns, motor skills, and cognitive function (CDKL5-QoL): 87.5 % of patients
[4]; clinical trial conclusions
  speech and motor delays: did not show marked improvements
[4]; eight patients aged 2 to 10 years, 10 mg/kg/day oral BID adjunct, 9 months, baseline on average 12 times per week
  mean reduction in major motor seizures: 63.2%
[5]
  reduction in seizure duration: 65%
  reduction in seizure severity: 72.5%
[6]
  CDKL2 expression in the hippocampal and cortical regions: notable increase in CDKL2 expression
  GluN2B subunit mislocalization: partially corrected
[7]
  phosphorylation of key synaptic proteins, including EB2 (MAPRE2): increased phosphorylation
[8]
  solubility: approximately 0.1 mg/ml
[9]; Het mice treated vs untreated Het mice, 30 mg/kg/day oral (FIG. 8)
  marble burying capacity: improvement in marble burying capacity
[9]; inferred from the behavioral findings in CDKL5-deficient mice
  crossing of the blood brain barrier: crosses the blood brain barrier
[10]; Het female mice brain, 30 mg/kg/day, vs untreated controls, not statistically significant (FIG. 2)
  phosphorylated EB2 isoforms 1 and 2 at ps222: trend towards increased phosphorylation
[10]; Het female mice brain, 30 mg/kg/day, did not reach statistical significance (FIG. 3)
  phosphorylated EB2 isoform 3 at ps222: trend toward increased phosphorylation
[10]; KO male and Het female mice, 30 mg/kg/day in drinking water
  EB2 phosphorylation levels: increased EB2 phosphorylation levels
